“Also recorded” adds a separate entry of the source.
Tests used:
[1] = system: BLM pulmonary injury model mouse; assay: BLM pulmonary injury model: α-SMA immunostaining of the lung (myofibroblast cells); format: in vivo; conditions: FIGS. 7A and 7B
Method: (§1) On day 1, BLM was administered via the airway to a normally reared male ICR mouse to prepare a BLM pulmonary injury model mouse.
A method for immunostaining with α-SMA was carried out by blocking the section with 2.5% goat serum for 10 minutes, and then performing a primary antibody treatment (against α-SMA, 1:100 dilution). At 12 hours later, the section was incubated with Alexa Fluor 594 goat anti-rabbit immunoglobulin G and DAPI for 2 hours. Thereafter, the section was encapsulated by using VECTA SHIELD. The section was photographed by using a microscope (Olympus DP71).
An α-SMA-positive region was quantitatively determined by using Image J software (National Institutes of Health, Bethesda, MD) The number of 8-OHdG-positive cells was quantitatively determined by using Definiens Tissue Studio (trademark) software (CTC Life Science Corporation, Tokyo, Japan).

[2] = system: BLM pulmonary injury model mouse; assay: BLM pulmonary injury model: H&E / Masson's trichrome staining, Ashcroft score, hydroxyproline; format: in vivo; conditions: for BLM-dependent pulmonary injuries: once a day day 10 to day 18, BLM 1 mg/kg, pirfenidone 200 mg/kg, nintedanib 30 mg/kg, tolperisone 5 mg/kg
LL29 cells [3] = assay: TGF-β1-dependent activation of lung fibroblast cells: amount of collagen in the medium; format: cell-based, human; conditions: LL29 cells treated with drug, then TGF-β1
Method: (§2) A549 cells (human alveolar epithelial cells) and LL29 cells (IPF patient-derived lung fibroblast cells) were cultured under conditions of 37° C. and 5% CO2 by using, respectively, Dulbecco's modified Eagle's medium containing 10% FBS and Ham's F-12K (Kaighn's) medium containing 15% FBS.
(§3) As described above, myofibroblast cells played an important role on pulmonary fibrosis in patients with IPF and bleomycin-induced pulmonary fibrosis. Thus, with attention focused on myofibroblast cells, the effects of idebenone and COQ10 were examined. […] Thus, the effects of idebenone and CoQ10 on TGF-β1-dependent activation of lung fibroblast cells (differentiation into myofibroblast cells) were compared. LL29 cells were treated with idebenone or CoQ10, and then treated with TGF-β1, and the amount of collagen in the medium was measured. […] Next, the effect of idebenone was examined by using the levels of α-SMA and mRNA of collagen as indices.

LL29 cells [4] = assay: TGF-β1-dependent activation of lung fibroblast cells: α-SMA and Col1a1 mRNA by real-time RT-PCR; format: cell-based, human
Method: Total RNA of cells was extracted by using RNeasy kit (Qiagen). 2.5 μg of total RNA was subjected to reverse transcription reaction in accordance with the protocol from Takara Bio Inc by using a first-strand cDNA synthesis kit (Takara Bio Inc). The synthesized cDNA was analyzed with a CFX96 (trademark) real time system by using SsoFast EvaGreen Supermix. For equalizing the total RNA amounts in the reactions, a glyceraldehyde-3-phosphate dehydrogenase (GAPDH) gene was used as an internal standard.
as §2, §3

[5] = system: LL29 cells (IPF patient-derived lung fibroblast cells); assay: MTT cell viability of lung fibroblast cells compared with alveolar epithelial cells; format: cell-based, human; conditions: for fibroblast cell-selective decrease in cell viability / cell death (LL29 versus A549): LL29 versus A549 cells, survived cell number; for difference in IC50 (concentration required to decrease the cell viability by 50%) between LL29 and A549 cells: screening of existing approved drugs, MTT, 24 hours, IC50 for LL29 lower than for A549
Method: as §2
(§4) The number of living cells was measured by an MTT method or trypan blue staining using Countess (trademark) Automated Cell Counter (Invitrogen, Carlsbad, CA). For evaluation of cell death, LDH activity in the medium was measured in accordance with the protocol of the assay kit.
For a specific method, IPF patient-derived lung fibroblast cells (LL29 cells) and human alveolar epithelial cells (A549 cells) were treated with existing approved drugs, and the cell viability 24 hours later was evaluated by an MTT method.
As with (b-1) above, IPF patient-derived lung fibroblast cells (LL29 cells) and human alveolar epithelial cells (A549 cells) were treated with existing approved drugs, and the cell viability 24 hours later was evaluated by an MTT method.

[6] = system: BLM pulmonary injury model mouse; assay: BLM pulmonary injury model: lung function (elastance, FVC) with ventilator for mice; format: in vivo
Method: as §1
The lung function was measured in accordance with previous literature by using a computer-controlled ventilator for small animals (FlexiVent; SCIREQ, Montreal, Canada). A metal tube (with an outer diameter of 1.27 mm and an inner diameter of 0.84 mm) was inserted by 8 mm into a mouse anesthetized with chloral hydrate (500 mg/kg), and the mouse was caused to breathe mechanically at a rate of 150 breaths/min with a tidal volume of 8.7 ml/kg and a positive end-expiratory pressure ventilation of 2-3 cm H2O.
The total respiratory elastance and the tissue elastance were measured by the snap shot and the forced oscillation technique, respectively. The forced vital capacity was measured in accordance with Chest 142, 1011-1019 (2012) by using the computer-controlled ventilator for small animals and a negative pressure reservoir (SCIREQ, Montreal, Canada). All the data was analyzed by using FlexiVent software (version 5.3; SCIREQ, Montreal, Canada).

A549 cells = assay: Number of living and dead cells by trypan blue staining, A549 cells; format: cell-based, human
Method: as §2, §4
(§5) Thus, the present inventors measured the number of living cells and the number of dead cells with the aid of trypan blue staining.

LL29 cells [7] = assay: LDH activity in the medium (cell death), LL29 cells; format: cell-based, human; conditions: 150 μM
Method: as §2, §4
(§6) More minute doses than the doses used during screening test were applied to examine the cell death inducing action of idebenone and to simultaneously conduct a screening reproducibility experiment.

[8] = system: A549 cells (human alveolar epithelial cells); assay: LDH activity in the medium (cell death), A549 cells; format: cell-based; conditions: 150 μM
Method: as §2, §4, §6

LL29 cells [9] = assay: Number of living and dead cells by trypan blue staining, LL29 cells; format: cell-based, human
Method: as §2, §4, §5

[10] = airway administration, comparison idebenone / CoQ10 (FIGS. 5A to 5C)
[11] = oral, 15 or 50 mg/kg once a day day 10 to day 18
[12] = airway administration, pre-administration (FIG. 3D)
[13] = airway administration, day 10 to day 19 (FIG. 10D)
[14] = oral, once a day day 10 to day 18, pirfenidone 200 mg/kg, nintedanib 30 mg/kg, tolperisone 5 mg/kg

COC1=C(OC)C(=O)C(C/C=C(\C)CC/C=C(\C)CC/C=C(\C)CC/C=C(\C)CC/C=C(\C)CC/C=C(\C)CC/C=C(\C)CC/C=C(\C)CC/C=C(\C)CCC=C(C)C)=C(C)C1=O [CoQ10]
bleomycin-induced increase in number of α-SMA-positive cells (myofibroblast cells) of the lung [1]: did not exhibit such a suppressing effect | pulmonary injury and fibrosing by bleomycin [2, 10]: suppressed | TGF-β1-induced increase in amount of collagen in the medium (LL29 cells [3]): did not suppress such an increase | TGF-β1-induced expression of α-SMA and Col1a1 mRNA (LL29 cells [4]): did not suppress such induction

CCc1ccc(C(=O)C(C)CN2CCCCC2)cc1 (centres unmarked) [eperisone]
fibroblast cell-selective decrease in cell viability / cell death (LL29 versus A549) [5]: decreased the cell viability of LL29 cells at a concentration lower than a concentration at which the cell viability of A549 cells decreased | BLM-dependent increase in amount of hydroxyproline ([2]; intraperitoneal administration): tendency of suppression | BLM-dependent pulmonary injuries and collagen accumulation ([2]; intraperitoneal administration): suppressed | BLM-dependent pulmonary injuries and collagen accumulation ([2]; oral, 15 or 50 mg/kg once a day day 10 to day 18, BLM 1 mg/kg, day 20): suppressed BLM-dependent pulmonary injuries and collagen accumulation in a concentration-dependent manner | BLM-dependent decrease in FVC ([6]; intraperitoneal administration): suppressed | BLM-dependent increase in total respiratory system elastance and tissue elastance ([6]; intraperitoneal administration): suppressed | BLM-dependent decrease in FVC [6, 11]: improved such changes in a concentration-dependent manner | BLM-dependent increase in total respiratory system elastance and tissue elastance [6, 11]: improved such changes in a concentration-dependent manner | TGF-β1-induced expression of α-SMA and Col1a1 mRNA (LL29 cells [4]): suppressed such induction

COC1=C(OC)C(=O)C(CCCCCCCCCCO)=C(C)C1=O [idebenone]
fibroblast cell-selective decrease in cell viability / cell death (LL29 versus A549) [5]: decreased the cell viability of LL29 cells (lung fibroblast cells) at a concentration lower than a concentration at which the cell viability of A549 cells (alveolar epithelial cells) decreased | difference in IC50 (concentration required to decrease the cell viability by 50%) between LL29 and A549 cells [5]: particularly marked difference in value of IC50 | bleomycin-induced increase in number of α-SMA-positive cells (myofibroblast cells) of the lung [1]: markedly suppressed such an increase | effect of drug alone on pulmonary fibrosing and the respiratory function ([2]; airway administration, 18.8 mg/kg, alone (without BLM)): did not affect pulmonary fibrosing and the respiratory function | pulmonary injury and fibrosing by bleomycin [2, 10]: suppressed | BLM-dependent increase in Ashcroft score ([2]; airway administration, pre-administration (FIG. 3B)): markedly suppressed such an increase | BLM-dependent increase in amount of hydroxyproline ([2]; airway administration, pre-administration (FIG. 3C)): markedly suppressed such an increase | BLM-dependent pulmonary injuries and collagen accumulation ([2]; airway administration, pre-administration day 1 to day 7 (FIG. 3A)): markedly suppressed such injuries and collagen accumulation | pulmonary injury and fibrosing by bleomycin ([2]; therapeutic effects, comparison idebenone / CoQ10 (FIGS. 6A to 6C)): suppressed | pulmonary injury and fibrosing 20 days after administration of BLM ([2]; therapeutic: airway administration started 10 days after BLM (FIGS. 4A to 4C)): markedly suppressed pulmonary injury and fibrosing | BLM-dependent decrease in FVC [6, 12]: tended to suppress such a decrease | BLM-dependent increase in total respiratory system elastance and tissue elastance [6, 12]: suppressed such an increase | BLM-dependent decrease in respiratory function ([6]; therapeutic: airway administration started 10 days after BLM (FIG. 4D)): markedly suppressed a BLM-dependent decrease in respiratory function | concentration at which suppression of cell proliferation started (A549 cells): 175 µM | induction of cell death (A549 cells; examined concentrations): did not induce cell death at examined concentrations | LDH released into the medium (LL29 cells [7]): LDH was released into the medium | LDH released into the medium [8]: little LDH was released | concentration at which induction of cell death started (LL29 cells [9]): 175 µM | concentration at which suppression of proliferation started (LL29 cells [9]): 75 µM | TGF-β1-induced increase in amount of collagen in the medium (LL29 cells [3]): suppressed such an increase | TGF-β1-induced expression of α-SMA and Col1a1 mRNA (LL29 cells [4]): suppressed such induction

CCc1ccc(C(=O)C(C)CN2CCCC2)cc1 (centres unmarked) [inaperisone]
fibroblast cell-selective decrease in cell viability / cell death (LL29 versus A549) [5]: induced fibroblast cell-selective cell death

C[C@H](CN1CCCC1)C(=O)c1ccc(C(F)(F)F)cc1 [lanperisone]
fibroblast cell-selective decrease in cell viability / cell death (LL29 versus A549) [5]: induced fibroblast cell-selective cell death

COC(=O)c1ccc2c(c1)NC(=O)/C2=C(\Nc1ccc(N(C)C(=O)CN2CCN(C)CC2)cc1)c1ccccc1 [nintedanib]
fibroblast cell-selective decrease in cell viability / cell death (LL29 versus A549) [5]: did not induce fibroblast cell-selective cell death; also recorded: hardly induced fibroblast cell-selective cell death | BLM-dependent pulmonary injuries ([2]; oral, day 20): hardly suppressed BLM-dependent pulmonary injuries

Cc1ccc(=O)n(-c2ccccc2)c1 [pirfenidone]
fibroblast cell-selective decrease in cell viability / cell death (LL29 versus A549) [5]: did not induce fibroblast cell-selective cell death; also recorded: hardly induced fibroblast cell-selective cell death | BLM-dependent pulmonary injuries ([2]; oral, day 20): hardly suppressed BLM-dependent pulmonary injuries

Clc1ccc2nsnc2c1NC1=NCCN1 [tizanidine]
fibroblast cell-selective decrease in cell viability / cell death (LL29 versus A549) [5]: did not exhibit such an effect

Cc1ccc(C(=O)C(C)CN2CCCCC2)cc1 (centres unmarked) [tolperisone]
fibroblast cell-selective decrease in cell viability / cell death (LL29 versus A549) [5]: decreased the cell viability of LL29 cells (lung fibroblast cells) at a concentration lower than a concentration at which the cell viability of A549 cells (alveolar epithelial cells) decreased | difference in IC50 (concentration required to decrease the cell viability by 50%) between LL29 and A549 cells [5]: particularly marked difference in IC50 value | BLM-dependent increase in amount of hydroxyproline ([2]; airway administration, day 10 to day 19 (FIG. 10C)): hardly suppressed such an increase | BLM-dependent pulmonary injuries and collagen accumulation ([2]; airway administration, day 10 to day 19 (FIGS. 10A and 10B)): slightly suppressed such injuries and collagen accumulation | BLM-dependent increase in amount of hydroxyproline ([2]; intraperitoneal administration): markedly suppressed such an increase | BLM-dependent pulmonary injuries and collagen accumulation ([2]; intraperitoneal administration): suppressed such injuries and collagen accumulation | BLM-dependent increase in amount of hydroxyproline ([2]; oral administration (FIG. 11C)): markedly suppressed such an increase | BLM-dependent pulmonary injuries and collagen accumulation ([2]; oral administration (FIGS. 11A and 11B)): suppressed such injuries and collagen accumulation | BLM-dependent pulmonary injuries ([2]; oral, day 20): markedly improved BLM pulmonary injuries | BLM-dependent decrease in FVC [6, 13]: suppressed such a decrease | BLM-dependent increase in total respiratory system elastance and tissue elastance [6, 13]: tended to suppress such an increase | BLM-dependent decrease in FVC ([6]; intraperitoneal administration): suppressed such a decrease | BLM-dependent increase in total respiratory system elastance and tissue elastance ([6]; intraperitoneal administration): suppressed such an increase | BLM-dependent decrease in FVC ([6]; oral administration (FIG. 11D)): suppressed such a decrease | BLM-dependent increase in total respiratory system elastance and tissue elastance ([6]; oral administration (FIG. 11D)): suppressed such an increase | BLM-dependent decrease in FVC [6, 14]: improved such changes | BLM-dependent increase in total respiratory system elastance and tissue elastance [6, 14]: improved such changes | TGF-β1-induced expression of α-SMA and Col1a1 mRNA (LL29 cells [4]): suppressed such induction
